Source: ChEMBL document CHEMBL1201862, “PubChem BioAssay data set” (2004)
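Interpolation was linear, between the two tested concentrations surrounding the appropriate level; five concentrations were tested over 48 hours in 96-well plates. At the GI50, growth is halved.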 Activity calls are given as the source filed them. Rule as the data show it: active = GI50 up to about 1.1 µM and inactive = higher.

Key:
Assay in all cases: NCI tumour cell line growth inhibition, 48 h
[1] = system: SF-268
[2] = system: M19-MEL
[3] = system: SK-MEL-5
[4] = system: Malme-3M
[5] = system: KM-20L2
[6] = system: NCI-H460
[7] = system: EKVX
[8] = system: U-251
[9] = system: LXFL 529
[10] = system: HL-60
[11] = system: HT-29
[12] = system: CCRF-CEM
[13] = system: UO-31
[14] = system: HOP-92
[15] = system: OVCAR-8
[16] = system: NCI-H522
[17] = system: K562
[18] = system: IGROV-1
[19] = system: SK-MEL-2
[20] = system: HOP-62
[21] = system: RXF 393
[22] = system: XF498
[23] = system: SF-295
[24] = system: KM12
[25] = system: RPMI-8226
[26] = system: UACC-257
[27] = system: SNB-75
[28] = system: SNB-78
[29] = system: A498
[30] = system: ACHN
[31] = system: NCI-H23
[32] = system: 786-0
[33] = system: HCT-116
[34] = system: RXF 631
[35] = system: A549
[36] = system: MOLT-4
[37] = system: HCC 2998
[38] = system: UACC-62
[39] = system: COLO 205
[40] = system: LOX IMVI
[41] = system: OVCAR-5
[42] = system: SK-OV-3
[43] = system: NCI-H226
[44] = system: OVCAR-3
[45] = system: SF-539
[46] = system: DMS-114
[47] = system: DLD-1
[48] = system: SK-MEL-28
[49] = system: SW-620
[50] = system: M14
[51] = system: TK-10
[52] = system: CAKI-1
[53] = system: SNB-19
[54] = system: OVCAR-4
[55] = system: SN12C
[56] = system: DMS-273

Measured: GI50

C/C(CC(=O)Nc1cc(Cl)c(Cl)cc1Cl)=N\NS(=O)(=O)c1ccc(C)cc1
inactive: [1] 29.3 µM | [2] 32.7 µM | [3] 38.3 µM | [4] 31.2 µM | [5] 41.8 µM | [6] 38.8 µM | [7] 35.3 µM | [8] 32 µM | [9] 36.2 µM | [10] 24.1 µM | [11] 51.3 µM | [12] 27.5 µM | [13] 21 µM | [14] 23.1 µM | [15] 39.3 µM | [16] 17.6 µM | [17] 35.5 µM | [18] 37.4 µM | [19] 28.9 µM | [20] 31.8 µM | [21] 24.9 µM | [22] 28.7 µM | [23] 37.1 µM | [24] 40.3 µM | [25] 27.4 µM | [26] 26 µM | [27] 32.6 µM | [28] 29 µM | [29] 53.6 µM | [30] 25.1 µM | [31] 21.6 µM | [32] 41.9 µM | [33] 23 µM | [34] 44 µM | [35] 45.7 µM | [36] 29.5 µM | [37] 35.3 µM | [38] 26.5 µM | [39] 26.8 µM | [40] 39.3 µM | [41] 53.8 µM | [42] 53.7 µM | [43] 17.9 µM | [44] 25.5 µM | [45] 30.5 µM | [46] 28.1 µM | [47] 33.4 µM | [48] 34.2 µM | [49] 58.3 µM | [50] 34.8 µM | [51] 48.5 µM

COc1ccc(C(=O)O[C@H]2[C@@H]3C=CO[C@@H](OC4OC(CO)C(O)C(O)C4O)[C@@H]3[C@@]3(CO)O[C@@H]23)cc1O (stereo not given in full)
inactive: [52] > 100 µM | [1] > 100 µM | [2] > 100 µM | [3] > 100 µM | [4] > 100 µM | [53] > 100 µM | [5] > 100 µM | [6] > 100 µM | [54] > 100 µM | [7] > 100 µM | [8] > 100 µM | [9] > 100 µM | [10] > 100 µM | [11] > 100 µM | [12] > 100 µM | [13] > 100 µM | [14] > 100 µM | [15] > 100 µM | [16] > 100 µM | [17] > 100 µM | [18] > 100 µM | [19] > 100 µM | [20] > 100 µM | [21] > 100 µM | [22] > 100 µM | [23] > 100 µM | [24] > 100 µM | [25] > 100 µM | [26] > 100 µM | [27] > 100 µM | [28] > 100 µM | [55] > 100 µM | [29] > 100 µM | [30] > 100 µM | [31] > 100 µM | [32] > 100 µM | [34] > 100 µM | [35] > 100 µM | [36] > 100 µM | [37] > 100 µM | [38] > 100 µM | [39] > 100 µM | [40] > 100 µM | [41] > 100 µM | [42] > 100 µM | [44] > 100 µM | [45] > 100 µM | [46] > 100 µM | [47] > 100 µM | [48] > 100 µM | [56] > 100 µM | [49] > 100 µM | [50] > 100 µM | [51] > 100 µM
